The text below walks through data of patent publication US20040063612A1, “Neuroprotective agents” (priority 2002, published 2004).

The test system of assay [1] is primary cortical neuron cultures. Description: Neuronal viability after oxidative stress (H2O2), crystal violet assay. Type of assay: cell-based, rat. To be noted: pre-treatment one day prior to 40 mM H2O2.
Procedure: Cell viability assays. […] Since the MTT assay measures both metabolic function (mitochondrial-based) and cell viability, a second method, the crystal violet assay, was used to assess cell density. For the crystal violet assay, the cells were rinsed in phosphate buffered saline (PBS) and stained for 10 minutes at room temperature with crystal violet solution (0.05% crystal violet, 2% formalin, 10% methanol). After extensive rinsing in tap water baths, the plates were dried and the dye eluted with 200 μl/well of PBS containing 1% SDS. The absorbance was measured at 595 nm using an automated ELISA reader.
High through-put screening with primary neuronal cell cultures. Primary neuronal cells were cultured in 96-well plates coated with collagen type IV or laminin.
Cerebral cortex tissue harvested from 16-18 day old rat fetuses (Sprague-Dawley) was incubated for 10 minutes in calcium-free and magnesium-free Hanks balanced salt solution (CMF-HBSS), followed by digestion in 0.25% trypsin/CMF-HBSS for 30 minutes at 37° C. […]
The cell viability was measured using the crystal violet assay one day after the oxidative injury. […]
Viability is expressed as percentage change relative to cultures treated only with the oxidant. […] Cell viability was measured using the crystal violet assay 1 day after the oxidative injury. […] Standard deviations calculated for 8 replicate cultures were <10%.
The subject of the next assay is cerebral ischaemia. The conditions noted are these: cited from earlier work.

On to `c1ccc(Nc2ccccc2)cc1` [Diphenylamine, diphenylamine], for which, in assay [1], the “increase in viability (in words)” value is “modest increase in viability” and the “neuronal rescue (in words)” value is on record as “less pronounced neuronal rescue”.

For the compound `[Mg+2]` [Mg, magnesium], in the assay on cerebral ischaemia, the infarct volume reductions is on record as 25-61%.
